Source: US20250346643A1, “TROPOMYOSIN KINASE RECEPTOR (TRK) LIGANDS AS THERAPEUTICS TO SUPPORT LIVER REGENERATION” (Vanderbilt University, priority 2024, published 2025)

Test system: mTORC1
Assay: Immunoblotting of HDOs for P-S6RP and P-P70S6K (mTORC1 activation)
Assay type: cell-based, human
Conditions: HDO, serum free and glutamine free William's E medium (FIG. 20A-C)
Method: Human ductal organoids. The normal human liver tissue was obtained through the Cooperative Human Tissue Network (CHTN) at Vanderbilt University Medical Center. The liver was cut into very small pieces in liver digestion medium (Gibco, Waltham, MA; 17703-034). The cell suspension was filtered through a 100-μm cell strainer. The flow through was then centrifuged for 2 min at 100 g, 4° C., and the cell pellet resuspended in ice-cold DMEM (Gibco, Waltham, MA; 11885-084, supplemented by 5% FBS) and centrifuged for 2 min at 300 g. The cell pellet was gently resuspended in Matrigel® (Corning, Corning, NY; 356231) and a […] dome plated in a 24-well plate. The plate was incubated for 10-15 min at 37° C. After solidifying, complete HepatiCult™ Organoid Initiation Medium (OIM) (STEMCELL Technologies, Vancouver, Canada; 100-0384) was added. For passaging, the Matrigel dome was dissociated using TrypLE (Thermo Fisher Scientific, Waltham, MA; 12604013) and incubated at 37° C. for 5 mins. Organoids were washed by resuspending in advanced DMEM/F12 and consecutive resuspension of the organoid pellet. Organoids were resuspended at a 1:10 dilution in Matrigel® and cultured in complete HepatiCult™ Organoid Growth Medium (OGM) (STEMCELL Technologies, Vancouver, Canada; 100-0385) for organoid expansion. For hepatocytic differentiation of hepatic ductal organoids, culture medium was changed to complete HepatiCult™ Organoid Differentiation Medium (ODM) (STEMCELL Technologies, 100-0383) 4 days after passaging. Vehicle, NTF3, BDNF, HGF (20 ng/ml final concentration) or Taletrectinib (Fisher Scientific, Waltham, MA; 502030245, final concentration 10 nM) or torin2 (Fisher Scientific, Waltham, MA; s2817, final concentration 25 nM) were diluted in William's E (without L-glutamine) and added to organoids.
Immunoblotting. HDOs and mpPHH were homogenized in RIPA buffer containing proteinase inhibitors (Roche, Basel, Switzerland; cOmplete™ Mini protease inhibitor, 2 tab/10 ml buffer) and 1×HALT phosphatase inhibitors (Thermo Fisher Scientific, Waltham, MA; catalog no. 78428). Lysates were sonicated and then centrifuged for 10 min at 18,800 g. Protein concentration of supernatants was determined by Direct Detect Spectrophotometer (MilliporeSigma, Burlington, MA). HDOs were treated with growth factors as described above. Lyophilized NTF3 was solubilized with sterile-filtered PBS supplemented with 0.1% BSA, aliquoted, and stored at −80° C. until use. […] HDOs and mpPHH were collected on ice in PBS and centrifuged for 10 s, and the cell pellet was homogenized in RIPA buffer containing inhibitors (Roche, Basel, Switzerland; cOmplete™ Mini protease inhibitor, 1×HALT phosphatase inhibitors, Thermo Fisher Scientific, Waltham, MA; catalog no. 78428). Cell lysates were sonicated and centrifuged for 10 min at 18,800 g. The protein concentration of supernatants was determined by a Direct Detect® spectrophotometer (MilliporeSigma, Burlington, MA). For immunoblot analysis, 10 to 50 μg of protein diluted in […] sample buffer (Invitrogen, Waltham, MA) were analyzed per SDS-polyacrylamide gel electrophoresis (NuPAGE™, Invitrogen, Waltham, MA) using Mops buffer or MES buffer (Invitrogen, Waltham, MA). […] Semi-quantitative band densitometry was performed using ImageJ software (version 1.53).

phosphorylation of P-p70S6 kinase and P-S6 ribosomal protein (S6RP): significantly increased phosphorylation
Substance: NTF3: neurotrophin-3, recombinant protein; HSC-derived hepatocyte mitogen, ligand of TRKA, TRKB, TRKC
